The values below are quoted from earlier work in patent EP1214078B1, “FORMULATIONS FOR PARENTERAL USE OF ES[…] AND AMINO ACIDS” (priority 1999, dated 2001).

The conditions of the data set: patients, slow intravenous injection or bolus, 300 mg/day.

With `C[C@]12CC[C@@H]3c4ccc(OC(=O)N(CCCl)CCCl)cc4CC[C@H]3[C@@H]1CC[C@@H]2OP(=O)(O)O` [estramustine phosphate, Estramustine phosphate], the “side effects at the peripheral intravenous injection sites” value was “thrombophlebitis and local irritations”.
